Results as given in patent publication US11384381B2, “Reaction accelerating agent” (Kikkoman Corporation, priority 2016, dated 2022).

Columns and labels:
Assay type in all cases: biochemical
[1] = tested on: cholesterol oxidase (CHO-CE); test: Acceleration of cholesterol detection reaction with small amount of cholesterol oxidase (Example 13); details: 0.04% (w/v) compound, 2.31 U/ml CHO-CE; for effect of accelerating cholesterol detection reaction: versus not added; for Degree of progression of reaction (%) after 7.5 minutes / Degree of progression of reaction (%) after 10 minutes: cholesterol detection reaction, ΔA/ΔA100%; for Degree of progression of reaction (%) after 7.5 minutes: 2.5 minutes after addition of second reagent, not added: 65; for Degree of progression of reaction (%) after 10 minutes: 5 minutes after addition of second reagent, not added: 88
Protocol: Next, in this Example, the degree of acceleration of cholesterol detection reaction by the compound of the present invention was determined using a small amount of cholesterol oxidase.
A reagent for cholesterol measurement having the following composition was prepared, and the measurement of cholesterol was carried out using Bio Majesty JCA-BM […] (manufactured by JEOL Ltd.).
32 μM cholesterol (manufactured by Wako Pure Chemical Industries, Ltd.)
5.0% (v/v) Triton X-100 (manufactured by Wako Pure Chemical Industries, Ltd.)
4.0% (w/v) sodium cholate (manufactured by Wako Pure Chemical Industries, Ltd.)
30 mM MOPS-NaOH buffer solution, pH 7.0
(§1) 10 U/ml peroxidase PEO-301 (Toyobo Co., Ltd.)
0.023 mM 10-(carboxymethylaminocarbonyl)-3,7-bis(dimethylamino)phenothiazine sodium (DA-67, manufactured by Wako Pure Chemical Industries, Ltd.)
(§2) 0.04% (w/v) of the compound of Comparative Example 2, any one compound of the present invention, or compound-free (Comparative Example 1) ion-exchange water as shown in Table 1
10 mM MOPS-NaOH buffer solution, pH 7.0
2.31 U/ml CHO-CE (manufactured by Kikkoman Biochemifa Company)
8 μl of the sample was added to 96 μl of the first reagent-E, and the mixture was incubated at 37° C. for 5 minutes. Then, 24 μl of the second reagent-J was added thereto, and the quantitative reaction of hydrogen peroxide resulting from the oxidation of cholesterol was allowed to progress at 37° C. for 5 minutes. The absorbance (A694 and A751) of the reaction solution for light at wavelengths of 694 nm and 751 nm was measured over time for 10 minutes after the mixing of the sample with the first reagent-E to determine the value of subtraction of A751 from A694, i.e., the value A694/751. Subsequently, ΔA was calculated by subtracting, from A694/751, the value of (104/128) times A694/751 4.8 minutes after the mixing of the sample with the first reagent-E. Incidentally, 5 minutes after the mixing of the sample with the first reagent-E represents the time immediately before the addition of the second reagent-J.
(§3) Next, ΔA calculated in this Example was divided by ΔA100% defined in Example 12 to calculate the degree of progression of cholesterol detection reaction. The degree of progression of cholesterol detection reaction 7.5 and 10 minutes after the mixing of the sample with the first reagent-E (in other words, 2.5 and 5 minutes after the addition of the second reagent-J) is shown in Table 10.

[2] = tested on: sarcosine oxidase (SOD-TE); test: Acceleration of sarcosine detection reaction with small amount of sarcosine oxidase (Example 11); details: 0.04% (w/v) compound, 12.3 U/ml SOD-TE; for effect of accelerating sarcosine detection reaction: versus not added; for Degree of progression of reaction (%) after 7.5 minutes / Degree of progression of reaction (%) after 10 minutes: sarcosine detection reaction, ΔA/ΔA100%; for Degree of progression of reaction (%) after 7.5 minutes: 2.5 minutes after addition of second reagent, not added: 60; for Degree of progression of reaction (%) after 10 minutes: 5 minutes after addition of second reagent, not added: 82
Protocol: Next, in this Example, the degree of acceleration of sarcosine detection reaction by the compound of the present invention was determined using a small amount of sarcosine oxidase.
A reagent for sarcosine measurement having the following composition was prepared, and the measurement of sarcosine was carried out using Bio Majesty JCA-BM1650 (manufactured by JEOL Ltd.).
32 μM sarcosine (manufactured by Wako Pure Chemical Industries, Ltd.)
(§4) 30 mM MOPS-NaOH buffer solution, pH 8.0
0.2% (v/v) NP-10 (manufactured by HELM)
as §1
(§5) 0.023 mM 10-(carboxymethylaminocarbonyl)-3,7-bis(dimethylamino)phenothiazine sodium
(§6) (DA-67, manufactured by Wako Pure Chemical Industries, Ltd.)
as §2
(§7) 10 mM MOPS-NaOH buffer solution, pH 8.0
12.3 U/ml SOD-TE (manufactured by Kikkoman Biochemifa Company)
8 μl of the sample was added to […] of the first reagent-D, and the mixture was incubated at 37° C. for 5 minutes. Then, 24 μl of the second reagent-H was added thereto, and the quantitative reaction of hydrogen peroxide resulting from the oxidation of sarcosine was allowed to progress at 37° C. for 5 minutes. The absorbance (A694 and A751) of the reaction solution for light at wavelengths of 694 nm and 751 nm was measured over time for 10 minutes after the mixing of the sample with the first reagent-D to determine the value of subtraction of A751 from A694, i.e., the value A694/751. Subsequently, ΔA was calculated by subtracting, from A694/751, the value of (104/128) times A694/751 4.8 minutes after the mixing of the sample with the first reagent-D. Incidentally, 5 minutes after the mixing of the sample with the first reagent-D represents the time immediately before the addition of the second reagent-H.
as §3, with “10” for “12”, “sarcosine” for “cholesterol”, “reagent-D” for “reagent-E”, “reagent-H)” for “reagent-J)”, “8.” for “10.”

[3] = tested on: fructosyl amino acid oxidase (FAOD-E); test: Fructosyl valine detection reaction completed with excess fructosyl amino acid oxidase (Example 8); details: 0.04% (w/v) compound, 21.4 U/ml FAOD-E (excess), 32 μM fructosyl valine, pH 8.0, 37° C.; for ΔA9 min: change in A694-A751 9 minutes after mixing; for ΔA10 min: change in A694-A751 10 minutes after mixing, defined as ΔA100%
Protocol: In this Example, the amount of change in absorbance is determined when the detection reaction of the substrate fructosyl valine was completed using an excess amount of fructosyl amino acid oxidase (FAOD-E), which is an oxidase.
A reagent for fructosyl valine measurement having the following composition was prepared, and the measurement of fructosyl valine using fructosyl amino acid oxidase was carried out using Bio Majesty JCA-BM 1650 (manufactured by JEOL Ltd.).
32 μM fructosyl valine (manufactured by Kikkoman Biochemifa Company)
as §4
0.2% (v/v) NYMEEN F-215 (manufactured by NOF Corp.)
as §1, §5, §6, §2, §7
21.4 U/ml FAOD-E (manufactured by Kikkoman Biochemifa Company)
8 μl of the sample was added to 96 μl of the first reagent-C, and the mixture was incubated at 37° C. for 5 minutes. Then, 24 μl of the second reagent-E was added thereto, and the quantitative reaction of hydrogen peroxide resulting from the oxidation of fructosyl valine was allowed to progress at 37° C. for 5 minutes. The absorbance ([…] and A751) of the reaction solution for light at wavelengths of 694 nm and 751 nm was measured over time for 10 minutes after the mixing of the sample with the first reagent-C to determine the value of subtraction of A751 from A694, i.e., the value A694/751. Subsequently, ΔA was calculated by subtracting, from A694/751, the value of (104/128) times A694/751 4.8 minutes after the mixing of the sample with the first reagent-C. Incidentally, 4.8 minutes after the mixing of the sample with the first reagent-C represents the time immediately before the addition of the second reagent-E. ΔA 9 minutes and 10 minutes after the mixing of the diluted sample with the first reagent-C (ΔA9min and ΔA10min) are shown in Table 5.
In other words, it can be recognized that the quantitative reaction of fructosyl valine, i.e., the quantitative reaction of hydrogen peroxide resulting from the oxidation of fructosyl valine, was completed in 10 minutes after the mixing of the diluted sample with the first reagent-C. Accordingly, in Examples 8 and 9, ΔA10min in each Comparative Example or the present invention was defined as ΔA when 100% of the quantitative reaction of HbA1c progressed under each condition (ΔA100%).

| Molecule | effect of accelerating cholesterol detection reaction [1] | Degree of progression of reaction (%) after 7.5 minutes [1] [%] | Degree of progression of reaction (%) after 10 minutes [1] [%] | effect of accelerating sarcosine detection reaction [2] | Degree of progression of reaction (%) after 7.5 minutes [2] [%] | Degree of progression of reaction (%) after 10 minutes [2] [%] | ΔA9 min [3] | ΔA10 min [3] |
| --- | --- | --- | --- | --- | --- | --- | --- | --- |
| Cc1nn(-c2cc(S(=O)(=O)[O-])ccc2Cl)c(O)c1N=Nc1ccccc1.[Na+] [Acid Yellow 34] | effect of accelerating cholesterol detection reaction | 72 | 92 |  |  |  |  |  |
| O=S(=O)([O-])c1cccc(N=Nc2ccc(Nc3ccccc3)cc2)c1.[Na+] [Acid Yellow 36] | effect of accelerating cholesterol detection reaction | 73 | 92 |  |  |  |  |  |
| O=C([O-])c1cc(N=Nc2cccc([N+](=O)[O-])c2)ccc1O.[Na+] [Alizarin Yellow GG] | effect of accelerating cholesterol detection reaction | 73 | 93 | effect of accelerating sarcosine detection reaction | 64 | 86 | 0.044 | 0.046 |
| O=C(O)c1cc(N=Nc2ccc3cc(S(=O)(=O)O)ccc3c2)ccc1O.[Na] [Chrome Yellow] | effect of accelerating cholesterol detection reaction | 67 | 91 | effect of accelerating sarcosine detection reaction | 65 | 87 | 0.066 | 0.067 |
| COc1cc(N=Nc2cccc(S(=O)(=O)[O-])c2)ccc1NC(=O)Nc1ccc(N=Nc2ccc(O)c(C(=O)[O-])c2)cc1.[Na+].[Na+] [Direct Yellow 44] |  |  |  | effect of accelerating sarcosine detection reaction | 68 | 89 |  |  |
| COc1cc(N=Nc2ccc(N)cc2)c(C)cc1N [Disperse Diazo Black 3BF] | effect of accelerating cholesterol detection reaction | 66 | 97 | effect of accelerating sarcosine detection reaction | 63 | 84 | 0.062 | 0.061 |
| O=C([O-])c1cc(N=Nc2ccc([N+](=O)[O-])cc2)ccc1O.[Na+] [Mordant Orange 1] | effect of accelerating cholesterol detection reaction | 74 | 94 | effect of accelerating sarcosine detection reaction | 67 | 88 | 0.049 | 0.051 |
| Acid Red 151 | effect of accelerating cholesterol detection reaction | 74 | 94 | effect of accelerating sarcosine detection reaction | 68 | 89 |  |  |
| Xylene Fast Yellow 2G |  |  |  | effect of accelerating sarcosine detection reaction | 64 | 86 |  |  |
